# Data: PMC3388080 (PLoS ONE, 2012)
# Experiments:
# male Sprague-Dawley rats = experiment: EEG/EMG/Tcore/LMA telemetry sleep study 1 (SB-334867 vs ZOL); assay type: in vivo, rat
# Description: All rodent electroencephalograph (EEG) studies were performed at SRI International. Three groups of eight male Sprague-Dawley rats (300±25 g; Charles River, Wilmington, MA) were implanted with chronic recording devices (F40-EET, Data Sciences Inc., St Paul, MN) for continuous recordings of EEG, electromyograph (EMG), core body temperature (Tcore), and LMA via telemetry as previously described. Data recording and scoring were performed as previously reported (see also Supplemental Material and Methods). The EEG and EMG data were scored in 10 sec epochs for waking (W), rapid eye movement sleep (REM), and non-REM sleep (NR). Tcore and LMA (counts per minute) were analyzed as hourly means. Data from the EEG studies are reported in hourly means such that the hourly time ZT1 refers to the hour between time points ZT0 and ZT1.
# For each of the three separate studies, a repeated measures counter-balanced design was employed in which each rat received five separate dosings. […] All dosings were administered ip in a volume of 2 ml/kg. A minimum of 3 d elapsed between doses. Dosing occurred during the middle of the rats’ normal active period at the start of ZT19 and was typically completed within 10 min. Animals were continuously recorded for 6 h prior to dosing and for 18 h following dosing.
# [1] = target: T1, TRH1 (h) (antagonist effect) (Homo sapiens, UniProt P34981); experiment: CEREP screen, antagonist effect; assay type: biochemical; conditions: % of control
# T1 construct: purchased CEREP
# T1 sequence (P34981 whole entry): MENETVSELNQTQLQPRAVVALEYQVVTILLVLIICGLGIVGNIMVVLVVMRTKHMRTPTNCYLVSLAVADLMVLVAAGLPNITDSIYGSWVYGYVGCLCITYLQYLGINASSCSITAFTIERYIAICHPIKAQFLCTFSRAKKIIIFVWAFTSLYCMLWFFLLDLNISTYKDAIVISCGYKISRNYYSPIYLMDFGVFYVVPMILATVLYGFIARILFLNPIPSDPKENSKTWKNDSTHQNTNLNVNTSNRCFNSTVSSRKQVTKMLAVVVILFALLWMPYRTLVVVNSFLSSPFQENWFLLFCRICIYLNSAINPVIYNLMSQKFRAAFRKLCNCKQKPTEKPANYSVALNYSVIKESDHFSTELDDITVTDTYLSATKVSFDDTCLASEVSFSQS
# Description: SB-334867 was evaluated in a selectivity screen performed at CEREP (Paris, France). The screen consisted of binding assays on a panel of 79 target receptors. The specific binding (SB) of a radioligand to each target receptor was defined as the difference between the total binding and the nonspecific binding determined in the presence of a cold competitor in excess. […] Details on the CEREP screen are available from www.cerep.fr.
smiles,measurement,setting,value
"Cc1nc2ccc(NC(=O)Nc3ccnc4cccnc34)cc2o1.Cl [SB-334867, 1-(2-methylbenzoxazol-6-yl)-3-[1], [5]naphthyridin-4-yl-urea hydrochloride]",Number of W bouts,"male Sprague-Dawley rats; ZT21, 10 mg/kg ip",14.88 ± 1.83
same,REM bout duration,"male Sprague-Dawley rats; ZT21, 10 mg/kg ip",1.38 ± 0.21
same,W bout duration,"male Sprague-Dawley rats; ZT21, 10 mg/kg ip",2.72 ± 0.50
same,NR bout duration,"male Sprague-Dawley rats; ZT21, 30 mg/kg ip",1.27 ± 0.16
same,Number of NR bouts,"male Sprague-Dawley rats; ZT21, 30 mg/kg ip",16.75 ± 2.30
same,Number of REM bouts,"male Sprague-Dawley rats; ZT21, 30 mg/kg ip",5.63 ± 1.10
same,Number of W bouts,"male Sprague-Dawley rats; ZT21, 30 mg/kg ip",13.00 ± 1.90
same,REM bout duration,"male Sprague-Dawley rats; ZT21, 30 mg/kg ip",1.04 ± 0.11
same,W bout duration,"male Sprague-Dawley rats; ZT21, 30 mg/kg ip",2.98 ± 0.68
same,NR bout duration (in words),male Sprague-Dawley rats; ZT21 at 30 mg/kg and ZT24 at 3 mg/kg,increased NR bout duration
same,NR bout duration,"male Sprague-Dawley rats; ZT22, 3 mg/kg ip",0.82 ± 0.13
same,Number of NR bouts,"male Sprague-Dawley rats; ZT22, 3 mg/kg ip",12.75 ± 2.22
same,Number of REM bouts,"male Sprague-Dawley rats; ZT22, 3 mg/kg ip",2.75 ± 1.10
same,Number of W bouts,"male Sprague-Dawley rats; ZT22, 3 mg/kg ip",13.38 ± 2.85
same,REM bout duration,"male Sprague-Dawley rats; ZT22, 3 mg/kg ip",1.10 ± 0.27
same,W bout duration,"male Sprague-Dawley rats; ZT22, 3 mg/kg ip",6.85 ± 3.36
same,NR bout duration,"male Sprague-Dawley rats; ZT22, 10 mg/kg ip",0.86 ± 0.10
same,Number of NR bouts,"male Sprague-Dawley rats; ZT22, 10 mg/kg ip",17.13 ± 2.47
same,Number of REM bouts,"male Sprague-Dawley rats; ZT22, 10 mg/kg ip",3.13 ± 0.67
same,Number of W bouts,"male Sprague-Dawley rats; ZT22, 10 mg/kg ip",14.13 ± 1.81
same,REM bout duration,"male Sprague-Dawley rats; ZT22, 10 mg/kg ip",1.16 ± 0.25
same,W bout duration,"male Sprague-Dawley rats; ZT22, 10 mg/kg ip",3.15 ± 0.53
same,NR bout duration,"male Sprague-Dawley rats; ZT22, 30 mg/kg ip",1.19 ± 0.23
same,Number of NR bouts,"male Sprague-Dawley rats; ZT22, 30 mg/kg ip",13.13 ± 2.17
same,Number of REM bouts,"male Sprague-Dawley rats; ZT22, 30 mg/kg ip",3.38 ± 1.03
same,Number of W bouts,"male Sprague-Dawley rats; ZT22, 30 mg/kg ip",16.00 ± 2.00
same,REM bout duration,"male Sprague-Dawley rats; ZT22, 30 mg/kg ip",1.25 ± 0.22
same,W bout duration,"male Sprague-Dawley rats; ZT22, 30 mg/kg ip",2.75 ± 0.54
same,NR bout duration,"male Sprague-Dawley rats; ZT23, 3 mg/kg ip",0.77 ± 0.08
same,Number of NR bouts,"male Sprague-Dawley rats; ZT23, 3 mg/kg ip",10.50 ± 2.01
same,Number of REM bouts,"male Sprague-Dawley rats; ZT23, 3 mg/kg ip",1.00 ± 0.42
same,Number of W bouts,"male Sprague-Dawley rats; ZT23, 3 mg/kg ip",9.00 ± 1.66
same,REM bout duration,"male Sprague-Dawley rats; ZT23, 3 mg/kg ip",0.63 ± 0.29
same,W bout duration,"male Sprague-Dawley rats; ZT23, 3 mg/kg ip",6.72 ± 1.58
same,NR bout duration,"male Sprague-Dawley rats; ZT23, 10 mg/kg ip",0.77 ± 0.13
same,Number of NR bouts,"male Sprague-Dawley rats; ZT23, 10 mg/kg ip",9.88 ± 1.88
same,Number of REM bouts,"male Sprague-Dawley rats; ZT23, 10 mg/kg ip",1.50 ± 0.63
same,Number of W bouts,"male Sprague-Dawley rats; ZT23, 10 mg/kg ip",8.88 ± 1.59
same,REM bout duration,"male Sprague-Dawley rats; ZT23, 10 mg/kg ip",1.12 ± 0.34
same,W bout duration,"male Sprague-Dawley rats; ZT23, 10 mg/kg ip",11.56 ± 6.94
same,NR bout duration,"male Sprague-Dawley rats; ZT23, 30 mg/kg ip",0.80 ± 0.14
same,Number of NR bouts,"male Sprague-Dawley rats; ZT23, 30 mg/kg ip",8.88 ± 2.17
same,Number of REM bouts,"male Sprague-Dawley rats; ZT23, 30 mg/kg ip",2.75 ± 1.08
same,Number of W bouts,"male Sprague-Dawley rats; ZT23, 30 mg/kg ip",8.38 ± 2.00
same,REM bout duration,"male Sprague-Dawley rats; ZT23, 30 mg/kg ip",0.75 ± 0.17
same,W bout duration,"male Sprague-Dawley rats; ZT23, 30 mg/kg ip",12.52 ± 6.85
same,NR bout duration,"male Sprague-Dawley rats; ZT24, 3 mg/kg ip",1.40 ± 0.24
same,Number of NR bouts,"male Sprague-Dawley rats; ZT24, 3 mg/kg ip",7.63 ± 2.02
same,Number of REM bouts,"male Sprague-Dawley rats; ZT24, 3 mg/kg ip",1.00 ± 0.42
same,Number of W bouts,"male Sprague-Dawley rats; ZT24, 3 mg/kg ip",7.00 ± 1.60
same,REM bout duration,"male Sprague-Dawley rats; ZT24, 3 mg/kg ip",1.13 ± 0.39
same,W bout duration,"male Sprague-Dawley rats; ZT24, 3 mg/kg ip",14.70 ± 7.18
same,NR bout duration,"male Sprague-Dawley rats; ZT24, 10 mg/kg ip",0.99 ± 0.18
same,Number of NR bouts,"male Sprague-Dawley rats; ZT24, 10 mg/kg ip",5.38 ± 1.45
same,Number of REM bouts,"male Sprague-Dawley rats; ZT24, 10 mg/kg ip",0.63 ± 0.26
same,Number of W bouts,"male Sprague-Dawley rats; ZT24, 10 mg/kg ip",5.25 ± 1.22
same,REM bout duration,"male Sprague-Dawley rats; ZT24, 10 mg/kg ip",0.48 ± 0.16^+
same,W bout duration,"male Sprague-Dawley rats; ZT24, 10 mg/kg ip",16.01 ± 6.44
same,NR bout duration,"male Sprague-Dawley rats; ZT24, 30 mg/kg ip",1.05 ± 0.12
same,Number of NR bouts,"male Sprague-Dawley rats; ZT24, 30 mg/kg ip",10.88 ± 1.90
same,Number of REM bouts,"male Sprague-Dawley rats; ZT24, 30 mg/kg ip",2.13 ± 0.55
same,Number of W bouts,"male Sprague-Dawley rats; ZT24, 30 mg/kg ip",8.63 ±1.29
same,REM bout duration,"male Sprague-Dawley rats; ZT24, 30 mg/kg ip",0.81 ± 0.12
same,W bout duration,"male Sprague-Dawley rats; ZT24, 30 mg/kg ip",5.39 ± 6.44
same,Tcore (in words),"male Sprague-Dawley rats; high concentration tested, across 6 h",decreased Tcore
same,% Control (10 µM) Mean SB,[1],78.5%
